According to ChEMBL document CHEMBL1151260, “Expanding the ChemGPS chemical space with natural products” (J Nat Prod, 2005):

Tests used:
[1] = target: T1, Prostaglandin G/H synthase 1 (Homo sapiens, UniProt P23219)
[2] = target: T2, Prostaglandin G/H synthase 2 (Homo sapiens) (UniProt P35354); experiment: Inhibition of COX2 at 313 uM
T2 sequence (whole entry): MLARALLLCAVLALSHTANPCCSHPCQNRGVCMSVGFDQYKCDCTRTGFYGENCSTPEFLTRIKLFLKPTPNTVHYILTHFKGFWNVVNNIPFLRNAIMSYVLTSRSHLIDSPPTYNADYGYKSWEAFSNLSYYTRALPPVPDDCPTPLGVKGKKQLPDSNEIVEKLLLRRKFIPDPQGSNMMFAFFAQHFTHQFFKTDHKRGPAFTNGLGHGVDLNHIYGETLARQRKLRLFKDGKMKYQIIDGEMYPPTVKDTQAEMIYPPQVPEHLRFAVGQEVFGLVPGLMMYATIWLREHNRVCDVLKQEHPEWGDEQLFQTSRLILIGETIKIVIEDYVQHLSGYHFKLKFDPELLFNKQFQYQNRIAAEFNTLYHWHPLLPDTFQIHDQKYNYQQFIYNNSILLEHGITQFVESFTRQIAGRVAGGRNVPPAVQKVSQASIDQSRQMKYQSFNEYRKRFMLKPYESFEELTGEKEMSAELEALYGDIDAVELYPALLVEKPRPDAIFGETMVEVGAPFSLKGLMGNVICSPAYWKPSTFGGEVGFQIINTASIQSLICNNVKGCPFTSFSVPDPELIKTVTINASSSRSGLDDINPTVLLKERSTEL

[3] = target: T2, Prostaglandin G/H synthase 2 (Homo sapiens); experiment: Inhibition of COX2 at 3.13 uM
[4] = target: T1, Prostaglandin G/H synthase 1; experiment: Inhibition of COX1 at 1000 uM
[5] = target: T1, Prostaglandin G/H synthase 1; conditions: 180 ug/mL
Description: Inhibition of COX1 at 180 ug/mL

[6] = target: T2, Prostaglandin G/H synthase 2 (Homo sapiens); experiment: Inhibition of COX2 at 0.1 ug/mL
SKGT4 [7] = experiment: Inhibition of COX2 mRNA expression in human SKGT4 cells; assay type: functional, cell-based
SKGT4 [8] = experiment: Inhibition of COX2 protein expression in human SKGT4 cells; assay type: functional, cell-based
[9] = target: T1, Prostaglandin G/H synthase 1; experiment: Inhibition of COX1 at 200 ug/mL
[10] = target: T2, Prostaglandin G/H synthase 2 (Homo sapiens); experiment: Inhibition of COX2 at 2.5 ug/mL
MCF-10A = experiment: Inhibition of COX2 protein expression in human MCF10A cells; assay type: functional, cell-based
[11] = target: T2, Prostaglandin G/H synthase 2 (Homo sapiens); experiment: Inhibition of COX2 at 25 uM
[12] = target: T1, Prostaglandin G/H synthase 1; experiment: Inhibition of COX1 at 30 ug/mL
J774.A1 [13] = experiment: Inhibition of COX2 protein expression in mouse J774A1 cells; assay type: functional, cell-based
[14] = target: T1, Prostaglandin G/H synthase 1; experiment: Inhibition of COX1 at 2.5 ug/mL
DLD-1 = experiment: Inhibition of COX2 mRNA expression in human DLD1 cells; assay type: functional, cell-based
RAW264.7 [15] = experiment: Inhibition of COX2 protein expression in mouse RAW264.7 cells; assay type: functional, cell-based
J774.A1 [16] = experiment: Inhibition of COX2 protein expression in mouse J774A1 cells at 5 uM; assay type: functional
[17] = target: T3, Prostaglandin G/H synthase 2 (Homo sapiens, UniProt P35354); experiment: Inhibition of COX2 at 1000 uM
T3 sequence (P35354 whole entry): T2 sequence (whole entry)

[18] = target: T2, Prostaglandin G/H synthase 2 (Homo sapiens); experiment: Inhibition of COX2 at 327 uM
RAW264.7 [19] = experiment: Inhibition of COX2 mRNA expression in mouse RAW264.7 cells; assay type: functional, cell-based
[20] = target: T2, Prostaglandin G/H synthase 2 (Homo sapiens); experiment: Inhibition of COX2 at 170 uM

T1 sequence (P23219 whole entry): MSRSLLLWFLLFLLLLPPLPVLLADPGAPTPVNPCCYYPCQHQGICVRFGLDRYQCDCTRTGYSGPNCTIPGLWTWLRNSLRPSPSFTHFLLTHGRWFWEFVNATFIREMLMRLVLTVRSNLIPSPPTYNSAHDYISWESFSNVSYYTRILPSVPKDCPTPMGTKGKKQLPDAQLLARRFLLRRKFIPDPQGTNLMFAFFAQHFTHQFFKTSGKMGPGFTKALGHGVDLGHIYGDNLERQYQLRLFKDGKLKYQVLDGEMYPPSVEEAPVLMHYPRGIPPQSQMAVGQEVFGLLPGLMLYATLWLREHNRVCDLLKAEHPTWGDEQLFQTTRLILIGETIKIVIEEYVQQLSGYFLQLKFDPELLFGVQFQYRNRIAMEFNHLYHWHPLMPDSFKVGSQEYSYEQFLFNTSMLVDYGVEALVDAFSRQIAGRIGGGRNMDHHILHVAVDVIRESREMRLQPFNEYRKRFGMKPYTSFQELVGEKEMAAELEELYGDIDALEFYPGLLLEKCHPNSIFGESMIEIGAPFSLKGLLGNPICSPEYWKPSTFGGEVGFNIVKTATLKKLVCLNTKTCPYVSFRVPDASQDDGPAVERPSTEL

| SMILES | IC50 [1] [µM] | also measured |
| --- | --- | --- |
| CC(C)=CCC/C(C)=C\CC1=CC(=O)C=C(C)C1=O | 64 |  |
| C=C1CCC[C@]2(C)CC[C@@H]([C@@](C)(O)CO)C[C@]12O | 1.3 |  |
| O=C(O)[C@H]1O[C@@H](Oc2c(-c3cc(O)c(O)c(O)c3)oc3cc(O)cc(O)c3c2=O)[C@H](O)[C@@H](O)[C@@H]1O | 10 |  |
| CC/C=C/C/C=C/C/C=C/C/C=C/CC/C=C/COCC(=O)O | 50 |  |
| C=C[C@@H](O)C#CC#C[C@@H](O)/C=C/CCCCCCCC(=O)OC(C)=O | 73 |  |
| COc1c(O)cc([C@@H]2Oc3cc(O)cc(O)c3C[C@H]2O)cc1O | 12 | inhibition [2]: 61% |
| COc1c(O)cc([C@H]2Oc3cc(O)cc(O)c3C[C@H]2O)cc1O | 3.3 | inhibition [3]: 23% |
| CC/C=C/C/C=C/C/C=C/C/C=C/CCSCCCC(=O)O | 81 |  |
| CC(=O)Oc1ccccc1C(=O)O |  | inhibition [4]: 46%; inhibition [5]: 52% |
| CC(C)[C@@H]1CC[C@@H](C)C[C@H]1O |  | inhibition [6]: 60% |
| COc1cc(-c2cc(=O)c3c(O)c(OC)c(OC)c(O)c3o2)ccc1O |  | inhibition [4]: 37% |
| COc1cc(-c2cc(=O)c3cc(OC)c(OC)cc3o2)ccc1O |  | inhibition [4]: 37% |
| COc1cc(/C=C/C(=O)CC(=O)/C=C/c2ccc(O)c(OC)c2)ccc1O |  | Activity (SKGT4 [7]): Dose-dependent effect; Activity (SKGT4 [8]): Dose-dependent effect |
| COc1cc(O[C@@H]2O[C@H](CO)[C@@H](O)[C@H](O)[C@H]2O)cc2oc(-c3ccc(O)cc3)cc(=O)c12 |  | inhibition [9]: 13% |
| C[C@@H]1O[C@@H](O[C@H]2[C@H](Oc3cc(O)c4c(=O)cc(-c5ccc(O)cc5)oc4c3)O[C@H](CO)[C@@H](O)[C@@H]2O)[C@H](O)[C@H](O)[C@H]1O |  | inhibition [10]: 20% |
| O=C(/C=C/c1ccc(O)c(O)c1)O[C@H](Cc1ccc(O)c(O)c1)C(=O)O |  | inhibition [4]: 58% |
| O=C(CCc1ccc(O)c(O)c1)C[C@@H](O)CCc1ccc(O)c(O)c1 |  | Activity (MCF-10A): Dose-dependent effect |
| O=C(O[C@@H]1Cc2c(O)cc(O)cc2O[C@@H]1c1cc(O)c(O)c(O)c1)c1cc(O)c(O)c(O)c1 |  | inhibition [11]: 13%; inhibition [12]: 51% |
| O=C1C[C@@H](c2ccc(O)cc2)Oc2cc(O)cc(O)c21 |  | Activity (J774.A1 [13]): Dose-dependent effect |
| O=c1c(O)c(-c2ccc(O)c(O)c2)oc2cc(O)cc(O)c12 |  | inhibition [10]: 40%; inhibition [14]: 90%; Activity (DLD-1): Dose-dependent effect |

| SMILES | IC50 [1] [µM] | also measured |
| --- | --- | --- |
| O=c1c(O[C@@H]2O[C@H](CO)[C@@H](O)[C@H](O)[C@H]2O)c(-c2ccc(O)c(O)c2)oc2cc(O)cc(O)c12 |  | inhibition [10]: 25% |
| O=c1cc(-c2ccc(O)c(O)c2)oc2cc(O)cc(O)c12 |  | inhibition [14]: 75% |
| Oc1cc(O)c2c(c1)O[C@H](c1ccc(O)c(O)c1)[C@H](O)C2 [(-)-EPICATECHIN] |  | IC50 (DLD-1): 415 µM |
| C=C1C(=O)C(O)=C[C@@H]2[C@]3(C)CC[C@](C)(C(=O)CO)C[C@@H]3CC[C@]12C [AKENDO 3] | 34 |  |
| O=c1cc(-c2ccc(O)cc2)oc2cc(O)cc(O)c12 [APIGENIN] |  | inhibition [4]: 65%; IC50 (RAW264.7 [15]): 0.5 µM; inhibition at 5 µM (J774.A1 [16]): 64% |
| C[C@@H]1OC(O[C@@H]2[C@@H](O)[C@H](OCCc3ccc(O)c(O)c3)O[C@H](CO[C@@H]3OC[C@](O)(CO)[C@H]3O)[C@H]2OC(=O)/C=C/c2ccc(O)c(O)c2)[C@H](O[C@@H]2OC[C@H](O)[C@H](O)[C@H]2O)[C@H](O)[C@H]1O (stereo partly specified) [BALLOTETROSIDE] | 1000 |  |
| C=C1CC/C=C(\C)C(=O)[C@H](OC(C)=O)[C@@H]2[C@@H]1CC2(C)C [BUDDLEDIN A] | 14 |  |
| O=C(/C=C/c1ccc(O)c(O)c1)OCCc1ccccc1 [CAFFEIC ACID PHENETHYL ESTER] | 58 |  |
| COc1cc(CNC(=O)CCCC/C=C/C(C)C)ccc1O [CAPSAICIN] | 3.8 |  |
| Cc1ccc(C(C)C)cc1O [CARVACROL] | 4 |  |
| Oc1cc(O)c2c(c1)O[C@H](c1ccc(O)c(O)c1)[C@@H](O)C2 [CIANIDANOL] | 80 |  |
| COc1cc2oc(-c3ccc(O)cc3)cc(=O)c2c(O)c1OC [CIRSIMARITIN] |  | IC50 [17]: 6% |
| COc1cc(/C=C/CO)ccc1O[C@@H]1O[C@H](CO)[C@@H](O)[C@H](O)[C@H]1O [CONIFERIN] | 75 |  |
| O=c1ccc2ccc(O)c(O)c2o1 [DAPHNETIN] | 140 |  |
| C=CCc1ccc(O)c(OC)c1 [EUGENOL] | 11 | inhibition [4]: 97% |
| C=CCc1ccc(OC(C)=O)c(OC)c1 [EUGENYL ACETATE] | 3 |  |
| C=C[C@@H](O)C#CC#C[C@@H](O)/C=C\CCCCCCC [FALCARINDIOL] | 66 |  |
| COc1ccc2cc1Oc1ccc(cc1)C[C@H]1c3cc(c(OC)cc3CCN1C)Oc1c(O)c(OC)cc3c1[C@H](C2)N(C)CC3 [FANGCHINOLINE] | 129 |  |
| COc1cc2ccc(=O)oc2c(O)c1O [FRAXETIN] | 524 |  |
| O=c1c(O)c(-c2ccccc2)oc2cc(O)cc(O)c12 [GALANGIN] |  | inhibition at 5 µM (J774.A1 [16]): 59% |

| SMILES | IC50 [1] [µM] | also measured |
| --- | --- | --- |
| Oc1cc(O)c2c(c1)O[C@H](c1cc(O)c(O)c(O)c1)[C@@H](O)C2 [GALLOCATECHIN] | 95 | inhibition [18]: 46% |
| O=c1c(-c2ccc(O)cc2)coc2cc(O)cc(O)c12 [GENISTEIN] | 80 |  |
| CC1(C)CC[C@]2(C)CC[C@]3(C)[C@H]4CC=C5[C@@H](CCC(=O)C5(C)C)[C@]4(C)CC[C@@]3(C)[C@@H]2C1 [GLUTINONE] | 3.6 |  |
| C[C@@H]1CC(=O)[C@]2(CO)[C@H](CCC[C@]23CO3)[C@@]12C[C@@H](c1ccoc1)OC2=O [GNAPHALIN] | 40 |  |
| O=c1c(O)c(-c2ccc(O)cc2)oc2cc(O)cc(O)c12 [KAEMPFEROL] |  | IC50 (RAW264.7 [19]): < 15 µM |
| CC(C)=CCc1c([C@@H]2CCc3ccc(O)cc3O2)cc2c(c1O)OC(C)(C)C=C2 [KAZINOL B] | > 100 |  |
| C=C(C)[C@H](CC=C(C)C)Cc1c(O)cc(OC)c(C(=O)/C=C/c2ccc(O)cc2O)c1O [KURAIDIN] | 0.6 |  |
| C=C(C)C(CC=C(C)C)Cc1c(O)cc(OC)c2c1O[C@H](c1ccc(O)cc1O)CC2=O (stereo partly specified) [KURARINONE] | 0.6 |  |
| C=C1CCC[C@]2(C)CC[C@@H]([C@@](C)(O)CO)C[C@@]12O [KUTDTRIOL] | 39 |  |
| CC(C)=CCc1c(-c2ccc(O)cc2O)oc2c(CC=C(C)C)c(O)cc(O)c2c1=O [KUWANON C] | 62 |  |
| CCCCC/C=C\C/C=C\CCCCCCCC(=O)O [LINOLEIC ACID] | 13 |  |
| CC(=O)[C@H]1CC[C@]2(C)CC[C@@H]([C@](C)(O)CO)C[C@]12O [LUCINONE] | 43 |  |
| CC(C)=CCc1c(O)ccc2ccc(=O)oc12 [OSTHENOL] | 64 |  |
| COc1c(O)cc([C@H]2Oc3c(c(O)cc(O)c3[C@H]3c4c(O)cc(O)cc4O[C@H](c4ccc(O)cc4)[C@@H]3O)C[C@H]2O)cc1O [OURATEAPROANTHOCYANIDIN A] | 138 | inhibition [20]: 37% |
| OC[C@H]1O[C@@H](OCCc2ccc(O)cc2)[C@H](O)[C@@H](O)[C@@H]1O [SALIDROSIDE] | 72 |  |
| CC(C)=CCC12Oc3cc(O)c(C4=CC5(C)CC(C4)c4ccc(O)cc4O5)c(O)c3C(=O)C1(O)Oc1cc(O)ccc12 (stereo unspecified) [SANGGENON B] | 42 |  |
| CC(C)=CCC12Oc3cc(O)ccc3C1(O)Oc1cc(O)c([C@H]3C=C(C)C[C@@H](c4ccc(O)cc4O)[C@@H]3C(=O)c3ccc(O)cc3O)c(O)c1C2=O (stereo partly specified) [SANGGENON D] | 59 |  |
| COc1cc(/C=C/CO)cc(OC)c1O[C@@H]1O[C@H](CO)[C@@H](O)[C@H](O)[C@H]1O [SYRINGIN] | 36 |  |
| CC(/C=C/C=C(\C)C(=O)O)=C\C=C\C=C(C)\C=C\C=C(/C)C(=O)O [TRANSCROCETIN] | 28 |  |
